Measured values published in paper PMC4435547 (The journal of maternal-fetal & neonatal medicine : the …, 2009).

Tests used:
[1] = test system: dually perfused human placental lobule
[2] = test system: placenta; settings: cited from earlier work

## Cc1cc(=O)n(-c2ccccc2)n1C [Antipyrine, antipyrine]
[1]; HSA, AAG, or their combination
  effect of HSA, AAG or their combination in the perfusion medium on transfer of AP across the placental lobule: not affected
[1]; human, 20 µg/mL
  Antipyrine Fetal/Maternal concentration ratio: 0.84 ± 0.11

## COc1ccc(Cl)cc1C(=O)NCCc1ccc(S(=O)(=O)NC(=O)NC2CCCCC2)cc1 [glyburide]
[2]
  fetal/maternal concentration ratio in presence of HSA versus absence of the protein: significantly lower
